Test results as given in patent publication US20100113291A1 (CENTRE NATIONAL DE LA RECHERCHE SCIENTIFIQUE, priority 2006, published 2010).

Molecular target: T1, MabA-wt (Mycobacterium tuberculosis, UniProt P9WGT3)
T1 construct: made in house; host or cells: Escherichia coli
Assay type: binding
Settings: spectrofluorimetry; read-out: KD for the cofactor

T1 sequence (P9WGT3 whole entry): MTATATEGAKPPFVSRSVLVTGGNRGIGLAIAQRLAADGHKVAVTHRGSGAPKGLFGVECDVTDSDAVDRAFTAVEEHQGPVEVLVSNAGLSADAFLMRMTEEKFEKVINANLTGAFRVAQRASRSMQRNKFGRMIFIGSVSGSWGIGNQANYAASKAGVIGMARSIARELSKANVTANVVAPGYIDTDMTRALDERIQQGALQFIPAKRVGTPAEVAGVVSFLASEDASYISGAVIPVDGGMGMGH

SMILES: NC(=O)C1=CN([C@@H]2O[C@H](COP(=O)(O)OP(=O)(O)OC[C@H]3O[C@@H](n4cnc5c(N)ncnc54)[C@H](OP(=O)(O)O)[C@@H]3O)[C@@H](O)[C@H]2O)C=CC1 [NADPH]
- Kd: 8.7 µM
